# From patent EP4813989A1, “CRYSTAL, PHARMACEUTICAL COMPOSITION, PREPARATION METHOD THEREFOR, AND USE THEREOF” (TYK Medicines, Inc., priority 2023, dated 2025)
# Assays:
# Type in all cases: physicochemical
# [1] = Light exposure test, related substances by HPLC
# Description: An investigation method for the light exposure test can be seen in Table 13 below.
# Results of related substances in each crystal form under the light exposure condition (4500lx±500lx) can be seen in Table 17.
# HPLC detection results of related substances under the light exposure condition can be seen as follows: Table 17
# [2] = Flowability test (angle of repose)
# Procedure: A flowability determination method was as follows: an angle of repose was determined by using a device composed of 2 to 3 funnels connected in series in a staggered manner, and drug powder was slowly and uniformly passed through the funnels onto a stationary base with a diameter d, so as to form a symmetric powder pile with a single layer of powder at the bottom. During the formation of the powder pile, a height of the funnels was maintained within 2-4 cm from a top of the powder pile, a height h of the cone was determined, and the angle of repose was calculated as tanθ=h/(d/2).
# [3] = Dynamic vapor sorption (DVS) hygroscopicity
# Procedure: Dynamic vapor sorption (DVS) was used to investigate hygroscopicities of an active pharmaceutical ingredient in different crystal forms.
# Determination method: • instrument: dynamic vapor sorption analyzer; temperature: 25°C; protective gas and flow rate: N2, 200 mL/min; • dm/dt: 0.002%/min; RH range: 0%RH-100%RH; cycle: 1 full cycle.
# [4] = Accelerated test, related substances by HPLC; conditions: 40°C±2°C, 75%RH±5%RH; for Impurity content RRT0.55 / Impurity content RRT0.66 / Impurity content RRT0.71 / Impurity content RRT0.94 / Impurity content RRT1.02 / Impurity content RRT1.06 / Impurity content RRT1.08 / Impurity content RRT1.15 / Total impurities: open
# Procedure: An investigation method for the accelerated test can be seen in Table 14 below.
# Change results of related substances in each crystal form under the accelerated condition (40°C±2°C, 75%RH±5%RH) can be seen in Table 18.
# HPLC detection results of related substances under the accelerated condition can be seen as follows: Table 18
# [5] = High-humidity test, related substances by HPLC; conditions: 90%RH±5%RH; for Impurity content RRT0.55 / Impurity content RRT0.66 / Impurity content RRT0.71 / Impurity content RRT0.94 / Impurity content RRT1.02 / Impurity content RRT1.06 / Impurity content RRT1.08 / Impurity content RRT1.15 / Total impurities: open
# Description: An investigation method for the high-humidity test can be seen in Table 12 below.
# Results of related substances in each crystal form under the high-humidity condition (90%RH±5%RH) can be seen in Table 16.
# HPLC detection results of related substances under the high-humidity condition can be seen as follows: Table 16
structure (smiles),measurement,setting,value
C[C@@H](Nc1ccn2ncc(C3=NOC(C)(C)N3)c2n1)c1cc(F)cc(F)c1F [crystal form E],Increase of impurity RRT0.66 content,"[1]; 4500 lx±500 lx, 32 days",0.04%
same,Increase of impurity RRT0.71 content,"[1]; 4500 lx±500 lx, 32 days",not increased
same,Increase of impurity RRT1.02 content,"[1]; 4500 lx±500 lx, 32 days",not increased
same,Increase of impurity RRT1.08 content,"[1]; 4500 lx±500 lx, 32 days",0.08%
same,Increase of total impurities,"[1]; 4500 lx±500 lx, 32 days",0.13%
same,Impurity content RRT0.55,"[1]; 4500lx±500lx, open, 0 day",0.04%
same,Impurity content RRT0.66,"[1]; 4500lx±500lx, open, 0 day",0.21%
same,Impurity content RRT0.71,"[1]; 4500lx±500lx, open, 0 day",0.14%
same,Impurity content RRT0.94,"[1]; 4500lx±500lx, open, 0 day",0.03%
same,Impurity content RRT1.02,"[1]; 4500lx±500lx, open, 0 day",0.21%
same,Impurity content RRT1.06,"[1]; 4500lx±500lx, open, 0 day",0.07%
same,Impurity content RRT1.08,"[1]; 4500lx±500lx, open, 0 day",0.17%
same,Impurity content RRT1.15,"[1]; 4500lx±500lx, open, 0 day",0.03%
same,Total impurities,"[1]; 4500lx±500lx, open, 0 day",0.89%
same,Impurity content RRT0.55,"[1]; 4500lx±500lx, open, 5 days",0.03%
same,Impurity content RRT0.66,"[1]; 4500lx±500lx, open, 5 days",0.22%
same,Impurity content RRT0.71,"[1]; 4500lx±500lx, open, 5 days",0.14%
same,Impurity content RRT0.94,"[1]; 4500lx±500lx, open, 5 days",0.02%
same,Impurity content RRT1.02,"[1]; 4500lx±500lx, open, 5 days",0.22%
same,Impurity content RRT1.06,"[1]; 4500lx±500lx, open, 5 days",0.05%
same,Impurity content RRT1.08,"[1]; 4500lx±500lx, open, 5 days",0.20%
same,Impurity content RRT1.15,"[1]; 4500lx±500lx, open, 5 days",0.04%
same,Total impurities,"[1]; 4500lx±500lx, open, 5 days",0.92%
same,Impurity content RRT0.55,"[1]; 4500lx±500lx, open, 11 days",0.04%
same,Impurity content RRT0.66,"[1]; 4500lx±500lx, open, 11 days",0.22%
same,Impurity content RRT0.71,"[1]; 4500lx±500lx, open, 11 days",0.14%
same,Impurity content RRT0.92,"[1]; 4500lx±500lx, open, 11 days",0.03%
same,Impurity content RRT0.94,"[1]; 4500lx±500lx, open, 11 days",0.03%
same,Impurity content RRT1.02,"[1]; 4500lx±500lx, open, 11 days",0.20%
same,Impurity content RRT1.06,"[1]; 4500lx±500lx, open, 11 days",0.04%
same,Impurity content RRT1.08,"[1]; 4500lx±500lx, open, 11 days",0.24%
same,Impurity content RRT1.15,"[1]; 4500lx±500lx, open, 11 days",0.03%
same,Total impurities,"[1]; 4500lx±500lx, open, 11 days",0.98%
same,Impurity content RRT0.55,"[1]; 4500lx±500lx, open, 32 days",0.03%
same,Impurity content RRT0.66,"[1]; 4500lx±500lx, open, 32 days",0.25%
same,Impurity content RRT0.71,"[1]; 4500lx±500lx, open, 32 days",0.13%
same,Impurity content RRT0.94,"[1]; 4500lx±500lx, open, 32 days",0.08%
same,Impurity content RRT1.02,"[1]; 4500lx±500lx, open, 32 days",0.20%
same,Impurity content RRT1.06,"[1]; 4500lx±500lx, open, 32 days",0.04%
same,Impurity content RRT1.08,"[1]; 4500lx±500lx, open, 32 days",0.25%
same,Impurity content RRT1.15,"[1]; 4500lx±500lx, open, 32 days",0.04%
same,Total impurities,"[1]; 4500lx±500lx, open, 32 days",1.02%
same,angle of repose,[2],37.9 °
same,Hygroscopicity (conclusion),[3],had hygroscopicity
same,DVS weight loss,[3]; humidity 20% or less,up to 3%
same,DVS weight loss,[3]; humidity increased from 0% to 30%,approximately 2%
same,DVS weight gain,[3]; humidity increased from 90% to 100%,approximately 4%
same,DVS weight loss,[3]; humidity reduced from 100% to 90%,approximately 2%
same,Increase of impurity RRT1.08 content,[4]; 32 days,0.03%
same,Impurity content RRT0.55,[4]; 0 day,0.04%
same,Impurity content RRT0.66,[4]; 0 day,0.21%
same,Impurity content RRT0.71,[4]; 0 day,0.14%
same,Impurity content RRT0.94,[4]; 0 day,0.03%
same,Impurity content RRT1.02,[4]; 0 day,0.21%
same,Impurity content RRT1.06,[4]; 0 day,0.07%
same,Impurity content RRT1.08,[4]; 0 day,0.17%
same,Impurity content RRT1.15,[4]; 0 day,0.03%
same,Total impurities,[4]; 0 day,0.89%
same,Impurity content RRT0.55,[4]; 5 days,0.04%
same,Impurity content RRT0.66,[4]; 5 days,0.21%
same,Impurity content RRT0.71,[4]; 5 days,0.15%
same,Impurity content RRT0.94,[4]; 5 days,0.03%
same,Impurity content RRT1.02,[4]; 5 days,0.21%
same,Impurity content RRT1.06,[4]; 5 days,0.05%
same,Impurity content RRT1.08,[4]; 5 days,0.18%
same,Impurity content RRT1.15,[4]; 5 days,0.03%
same,Total impurities,[4]; 5 days,0.89%
same,Impurity content RRT0.55,[4]; 11 days,0.04%
same,Impurity content RRT0.66,[4]; 11 days,0.21%
same,Impurity content RRT0.71,[4]; 11 days,0.15%
same,Impurity content RRT0.94,[4]; 11 days,0.02%
same,Impurity content RRT1.02,[4]; 11 days,0.21%
same,Impurity content RRT1.06,[4]; 11 days,0.05%
same,Impurity content RRT1.08,[4]; 11 days,0.21%
same,Impurity content RRT1.15,[4]; 11 days,0.03%
same,Total impurities,[4]; 11 days,0.94%
same,Impurity content RRT0.55,[4]; 32 days,0.04%
same,Impurity content RRT0.66,[4]; 32 days,0.21%
same,Impurity content RRT0.71,[4]; 32 days,0.16%
same,Impurity content RRT0.94,[4]; 32 days,0.04%
same,Impurity content RRT1.02,[4]; 32 days,0.20%
same,Impurity content RRT1.06,[4]; 32 days,0.04%
same,Impurity content RRT1.08,[4]; 32 days,0.20%
same,Impurity content RRT1.15,[4]; 32 days,0.05%
same,Total impurities,[4]; 32 days,0.95%
same,Increase of impurity RRT1.02 content,[5]; 32 days,no essential changes
same,Increase of impurity RRT1.08 content,[5]; 32 days,0.04%
same,Increase of total impurities,[5]; 32 days,0.05%
same,Impurity content RRT0.55,[5]; 0 day,0.04%
same,Impurity content RRT0.66,[5]; 0 day,0.21%
same,Impurity content RRT0.71,[5]; 0 day,0.14%
same,Impurity content RRT0.94,[5]; 0 day,0.03%
same,Impurity content RRT1.02,[5]; 0 day,0.21%
same,Impurity content RRT1.06,[5]; 0 day,0.07%
same,Impurity content RRT1.08,[5]; 0 day,0.17%
same,Impurity content RRT1.15,[5]; 0 day,0.03%
same,Total impurities,[5]; 0 day,0.89%
same,Impurity content RRT0.55,[5]; 5 days,0.03%
same,Impurity content RRT0.66,[5]; 5 days,0.21%
same,Impurity content RRT0.71,[5]; 5 days,0.15%
same,Impurity content RRT0.94,[5]; 5 days,0.03%
same,Impurity content RRT1.02,[5]; 5 days,0.21%
same,Impurity content RRT1.06,[5]; 5 days,0.05%
same,Impurity content RRT1.08,[5]; 5 days,0.18%
same,Impurity content RRT1.15,[5]; 5 days,0.03%
same,Total impurities,[5]; 5 days,0.89%
same,Impurity content RRT0.55,[5]; 11 days,0.04%
same,Impurity content RRT0.66,[5]; 11 days,0.21%
same,Impurity content RRT0.71,[5]; 11 days,0.14%
same,Impurity content RRT0.94,[5]; 11 days,0.02%
same,Impurity content RRT1.02,[5]; 11 days,0.20%
same,Impurity content RRT1.06,[5]; 11 days,0.05%
same,Impurity content RRT1.08,[5]; 11 days,0.21%
same,Impurity content RRT1.15,[5]; 11 days,0.03%
same,Total impurities,[5]; 11 days,0.89%
same,Impurity content RRT0.55,[5]; 32 days,0.04%
same,Impurity content RRT0.66,[5]; 32 days,0.22%
same,Impurity content RRT0.71,[5]; 32 days,0.15%
same,Impurity content RRT0.94,[5]; 32 days,0.05%
same,Impurity content RRT1.02,[5]; 32 days,0.19%
same,Impurity content RRT1.06,[5]; 32 days,0.04%
same,Impurity content RRT1.08,[5]; 32 days,0.21%
same,Impurity content RRT1.15,[5]; 32 days,0.04%
same,Total impurities,[5]; 32 days,0.94%
